Experimental data reported in patent US20160282364A1, “ASSAY FOR INSULIN-DEGRADING ENZYME (IDE) INHIBITORS” (PRESIDENT AND FELLOWS OF HARVARD COLLEGE, priority 2013, published 2016).
Entries after “also recorded” stand apart in the source; their conditions may differ.

Tests used:
[1] = Plasma protein binding assay; type: in vitro ADME
[2] = Plasma pharmacokinetics by isotope dilution mass spectrometry; type: in vivo, mouse; conditions: 80 mg/kg
Method: Purified macrocycle inhibitors were dissolved in DMSO-d6 ( 200 to 250 mg/mL stock solutions). […] The inhibitor concentration was calculated using the integral of the CH2Cl2 singlet (δ 5.76 ppm, 2H)^57, which appears in an uncluttered region of these spectra^51,58. For injectable formulations (10 mL/kg i.p. injection volume), the macrocycle inhibitor solution in DMSO-d6 (200-250 mg/mL, based on free-base molecular weight) was combined with 1:20 w/w Captisol® powder (CyDex)^59. The resulting slurry was supplemented with DMSO-d6 to make up to 5% of the final formulation volume, mixed thoroughly and dissolved with sterile saline solution (0.9% NaCl). Vehicle controls were identically formulated with 5% DMSO-d6 and equal amount of Captisol®. The formulated solutions of inhibitor were clear with no visible particles, and were stored overnight at 4° C. prior to injection. Stable isotope dilution LC-MS, pharmacokinetics, and tissue distribution measurements. […] Tissue samples ( 100 mg) fromb 6K-treated mice and vehicle controls were weighed and disrupted in Dounce homogenizers with PBS buffer (0.5 mL/100 mg sample), supplemented with 5 μM heavy-6bK and protease inhibitor cocktail (1 tablet/50 mL PBS, Roche diagnostics). The lysate was incubated on ice for 30 min, sonicated 5 min and centrifuged at 13,000 g for 5 min. The bulk of supernatant proteins were precipitated by denaturation at 95° C. for 5 min, removed by centrifugation.

GCGR−/− mice = test: Glucose tolerance tests in glucagon receptor knockout mice; type: in vivo, mouse; conditions: 80 mg/kg
Text: In vivo studies, general information. Wild-type C57BL/6J and diet-induced obese (DIO) C57BL/6J age-matched male adult mice were purchased from Jackson Laboratories. The age range was 13 to 15 weeks for lean mice, and 24 to 26 weeks for DIO mice. All animals were individually housed on a 14-h light, 10-h dark schedule at the Biology Research Infrastructure (BRI), Harvard University. Cage enrichment included cotton bedding and a red plastic hut. Water and food were available ad libitum, consisting respectively of normal chow (Prolab® RHM 3000) or high-fat diet (60 kcal % fat, D12492, Research Diets Inc.). […]
Glucose tolerance tests GTT and blood glucose measurements. […] Blood glucose was measured using AccuCheck® meters (Aviva) from blood droplets obtained from a small nick at the tip of the tail, at timepoints −45, 0, 15, 30, 45, 60, 90 and 120 min with reference to the time of glucose injection. The area of the blood glucose response profile curve corresponding to each animal was calculated by the trapezoid method^17, using as reference each individual baseline blood glucose measurement prior to glucose administration (t=0). […]

mice = test: Blood pressure and heart rate in mouse CGRP model; type: in vivo
Method: CGRP is a potent microvascular vasodilator widely expressed in the central and peripheral nervous systems of vertebrates. Administration of CGRP resulting in supraphysiological plasma levels of CGRP results in temporary vasodilation, hypotension, and an increased heart rate.
Nine mice received 250 ng CGRP intravenously (t=0). […] The other five received a control injection of vehicle only.
In addition,the lower panel of FIG. 19 demonstates that the increase in heart rate observed initially after CGRP administration is similar in both groups, but that the heart rate remains […] and the heart change rate is decreased in 6bK-administered mice as compared to controls.

IDE = IDE (Homo sapiens, UniProt P14735); test: Protease assay with fluorogenic peptide substrate Mca-[…](Dnp)-OH; type: biochemical; design: recombinant human IDE42-1019 (R&D Systems); purchased R&D Systems
Method: All data points and error bars represent mean±SEM. Significance tests were performed using two-tail Student's t-test, and significance levels shown in the figures are p<0.05 (*) or p<0.01 (**) versus the vehicle-only control group. The in vitro selection of the DNA-templated macrocycle libraryl^16,17 used 20 μg His6-tagged mouse IDE immobilized on cobalt magnetic beads (Dynabeads, Invitrogen). IDE proteolytic activity was assayed with fluorogenic peptide Mca-[…](Dnp)-OH (R&D). IDE inhibition was confirmed using an anti-insulin antibody time-resolved FRET assay (Cysbio), and using an LCMS assay for CGRP cleavage fragments CGRP1-17 and CGRP18-37 in plasma^18. […] Protease assays with fluorogenic peptide substrates. […] (R&D). All assay data points were obtained in duplicate.

IDE (R&D) = IDE (R&D) (Homo sapiens, UniProt P14735); test: Yonetani-Theorell double inhibitor kinetic assay; type: biochemical; design: recombinant human IDE42-1019 (R&D Systems); purchased R&D Systems; conditions: 6b together with substrate mimetic Ii1
Text: Protease assays with fluorogenic peptide substrates. […] All assay data points were obtained in duplicate.

Sequence of IDE (P14735 42-1019): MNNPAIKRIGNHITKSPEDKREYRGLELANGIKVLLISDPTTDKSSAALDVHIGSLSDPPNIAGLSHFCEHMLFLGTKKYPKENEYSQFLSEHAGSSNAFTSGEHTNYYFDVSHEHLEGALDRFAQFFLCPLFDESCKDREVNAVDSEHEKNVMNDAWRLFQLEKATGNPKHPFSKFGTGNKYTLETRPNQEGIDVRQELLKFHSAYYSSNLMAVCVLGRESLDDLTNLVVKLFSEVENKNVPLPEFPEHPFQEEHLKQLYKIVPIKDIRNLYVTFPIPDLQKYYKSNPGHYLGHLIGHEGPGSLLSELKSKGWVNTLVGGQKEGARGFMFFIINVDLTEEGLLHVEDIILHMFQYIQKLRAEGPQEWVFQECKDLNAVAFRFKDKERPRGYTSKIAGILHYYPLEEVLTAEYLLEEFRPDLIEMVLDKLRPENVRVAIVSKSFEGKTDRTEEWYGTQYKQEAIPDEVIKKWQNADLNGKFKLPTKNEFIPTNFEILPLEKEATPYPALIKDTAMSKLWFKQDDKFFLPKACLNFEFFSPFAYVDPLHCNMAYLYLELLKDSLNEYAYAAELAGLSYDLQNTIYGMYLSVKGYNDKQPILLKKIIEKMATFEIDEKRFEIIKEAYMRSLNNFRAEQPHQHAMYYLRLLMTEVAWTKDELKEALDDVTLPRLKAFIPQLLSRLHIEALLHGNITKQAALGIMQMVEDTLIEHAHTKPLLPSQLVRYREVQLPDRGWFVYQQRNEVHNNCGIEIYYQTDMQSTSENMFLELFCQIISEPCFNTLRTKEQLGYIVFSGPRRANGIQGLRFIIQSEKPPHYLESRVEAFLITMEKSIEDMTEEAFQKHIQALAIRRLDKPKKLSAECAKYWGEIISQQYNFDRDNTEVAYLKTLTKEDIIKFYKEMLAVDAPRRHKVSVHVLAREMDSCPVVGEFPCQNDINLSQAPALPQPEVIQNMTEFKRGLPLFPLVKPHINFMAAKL
Sequence of IDE (R&D) (P14735 42-1019): as above

| SMILES | unbound in plasma protein binding assay [1] [%] | plasma concentration relative to IC50 for mouse IDE ([2]; 30 min post-injection) [fold] | time at which plasma levels were detectable post-injection ([2]; mouse, in vivo, ip) [min] | time plasma levels maintained at a detectable level ([2]; mouse, in vivo, ip) | response to i.p. injected glucose (GCGR−/− mice; 6bK vs vehicle) | oral glucose tolerance (GCGR−/− mice; vs vehicle) | return of blood pressure to baseline / duration of CGRP-induced hypotension (mice; 1 mg 6bK i.p. 30 min before 250 ng CGRP i.v.) | baseline blood pressure (mice; mice, 1 mg 6bK i.p., vs vehicle) | baseline heart rate (mice; mice, 1 mg 6bK, vs control) | IC50 (IDE) [nM] | mode of double inhibition with Ii1 (IDE (R&D)) |
| --- | --- | --- | --- | --- | --- | --- | --- | --- | --- | --- | --- |
| NCCCC[C@@H]1NC(=O)/C=C/C(=O)N[C@H](C(N)=O)CCCCNC(=O)[C@@H](Cc2ccc(C(=O)c3ccccc3)cc2)NC(=O)[C@H](CC2CCCCC2)NC1=O [Compound 6bK] | ~6 | ~1000 | 5 | at least 4 h | virtually identical | improvement | slower kinetics; also recorded: increases the duration | reduced; also recorded: lowered | reduced | – | – |
| NC(=O)CCC1NC(=O)C=CC(=O)NC(C(N)=O)CCCCNC(=O)C(Cc2ccc(C(=O)c3ccccc3)cc2)NC(=O)C(CC2CCCCC2)NC1=O (centres unmarked) [Compound 6b] | – | – | – | – | – | – | – | – | – | 60 | synergistic |
